Laboratory results published in ChEMBL document CHEMBL2157929, “Synthesis and structure-activity relationship of fused-pyrimidine derivatives as a series of novel GPR119 agonists” (Bioorg Med Chem, 2012).
≈ marks a conversion by molar mass, not a printed value.

Assays:
[1] = test system: Mus musculus; test: Antihyperglycemic activity in po dosed ICR mouse assessed as reduction of blood glucose level after 30 mins by oral glucose tolerance test; type: functional; conditions: 0.5 h, read-out: MED
[2] = biological target: T1, Glucose-dependent insulinotropic receptor (Homo sapiens) (UniProt Q8TDV5); test: Agonist activity at human recombinant GPR119 expressed in HEK293 cells co-expressing pCRE-Luc assessed as concentration required to showing equipotent efficacy to 2-(2-(4-bromophenyl)-6-methylpyrimidin-4-ylamino)ethanol after 6 hrs by cAMP reporter assay; type: functional, cell-based
T1 sequence (whole entry): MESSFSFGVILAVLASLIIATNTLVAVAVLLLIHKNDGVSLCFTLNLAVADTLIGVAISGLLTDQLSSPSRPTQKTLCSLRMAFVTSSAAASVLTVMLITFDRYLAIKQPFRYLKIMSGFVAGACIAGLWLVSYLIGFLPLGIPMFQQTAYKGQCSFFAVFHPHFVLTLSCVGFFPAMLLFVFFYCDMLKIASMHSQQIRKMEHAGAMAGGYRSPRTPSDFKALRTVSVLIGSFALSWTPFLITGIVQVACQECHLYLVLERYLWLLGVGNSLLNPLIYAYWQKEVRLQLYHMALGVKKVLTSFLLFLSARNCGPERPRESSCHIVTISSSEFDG

[3] = biological target: T1, Glucose-dependent insulinotropic receptor (Homo sapiens); test: Agonist activity at human recombinant GPR119 expressed in HEK293 cells co-expressing pCRE-Luc at 10 uM after 6 hrs by cAMP reporter assay relative to 2-(2-(4-bromophenyl)-6-methylpyrimidin-4-ylamino)ethanol; type: functional, cell-based
[4] = test system: Mus musculus; test: Antihyperglycemic activity in ICR mouse assessed as reduction of blood glucose level at 3 mg/kg, po after 30 mins by oral glucose tolerance test; type: functional; design: scale not given: the % may be the effect or the level left
[5] = test system: Mus musculus; test: Antihyperglycemic activity in ICR mouse assessed as reduction of blood glucose level at 1 mg/kg, po after 30 mins by oral glucose tolerance test; type: functional; design: scale not given: the % may be the effect or the level left
[6] = Solubility of compound at pH 6.8 after 20 hrs by precipitation method; type: physicochemical; conditions: buffer
[7] = Inhibition of cytochrome P450 up to 50 uM; type: ADME
[8] = Clearance in human liver microsomes; type: ADME, Microsome; conditions: read-out: CLH
[9] = test system: Mus musculus; test: Antihyperglycemic activity in ICR mouse assessed as reduction of blood glucose level at 0.1 mg/kg, po after 30 mins by oral glucose tolerance test; type: functional; design: scale not given: the % may be the effect or the level left
[10] = test system: Mus musculus; test: Antihyperglycemic activity in ICR mouse assessed as reduction of blood glucose level at 0.3 mg/kg, po after 30 mins by oral glucose tolerance test; type: functional; design: scale not given: the % may be the effect or the level left

| Compound | minimal effective dose [1] | EC [2] | Intrinsic activity [3] | Activity [4] | Activity [5] | solubility kinetic at 20 h [6] | inhibition (INH) [7] | CLint scaled [8] | Activity [9] | Activity [10] |
| --- | --- | --- | --- | --- | --- | --- | --- | --- | --- | --- |
| O=C(O)C1CCN(c2nc(-c3cc(F)c(Cl)cc3F)nc3c2CS(=O)(=O)C3)CC1 | > 3 mg/kg | 560 nM | 528% | 15% | – | – | – | – | – | – |
| O=S1(=O)Cc2nc(-c3cc(F)c(Cl)cc3F)nc(N3CCOCC3)c2C1 | 1 mg/kg | 28 nM | 668% | – | 30% | < 1 µM | – | – | – | – |
| NC(=O)C1CCN(c2nc(-c3cc(F)c(Cl)cc3F)nc3c2CS(=O)(=O)C3)CC1 | 3 mg/kg | 21 nM | 294% | – | 12% | 40 µM (≈ 17.7 µg/mL) | – | – | – | – |
| Fc1cc(-c2nc3c(c(N4CCOCC4)n2)CCC3)c(F)cc1Cl | – | 350 nM | 405% | – | – | – | – | – | – | – |
| NC(=O)CC1CCN(c2nc(-c3cc(F)c(Cl)cc3F)nc3c2CS(=O)(=O)C3)CC1 | 0.1 mg/kg | 8.3 nM | 483% | – | 35% | 15 µM (≈ 6.85 µg/mL) | Not Active | 58 mL/min/kg | 27% | – |
| Fc1cc(-c2nc3c(c(N4CCOCC4)n2)SCC3)c(F)cc1Cl | – | 57 nM | 426% | – | – | – | – | – | – | – |
| O=S1(=O)Cc2nc(-c3cc(F)c(Cl)cc3F)nc(N3CCC(CCO)CC3)c2C1 | 1 mg/kg | 2.8 nM | 506% | – | 29% | 23 µM (≈ 10.2 µg/mL) | – | – | – | – |
| Fc1cc(-c2nc3c(c(N4CCOCC4)n2)COC3)c(F)cc1Cl | – | 4100 nM | 205% | – | – | – | – | – | – | – |
| CN(C)C(=O)C1CCN(c2nc(-c3cc(F)c(Cl)cc3F)nc3c2CS(=O)(=O)C3)CC1 | 1 mg/kg | 350 nM | 292% | – | 32% | > 100 µM | – | – | – | – |
| O=S1(=O)Cc2nc(-c3cc(F)c(Cl)cc3F)nc(N3CCC(CO)CC3)c2C1 | 0.3 mg/kg | 3.9 nM | 501% | – | 29% | 16 µM (≈ 6.88 µg/mL) | – | – | – | – |
| NC(=O)CN1CCN(c2nc(-c3cc(F)c(Cl)cc3F)nc3c2CS(=O)(=O)C3)CC1 | 3 mg/kg | 44 nM | 737% | – | 17% | > 100 µM | – | – | – | – |
| Fc1cc(-c2nc3c(c(N4CCOCC4)n2)CCS3)c(F)cc1Cl | – | 970 nM | 258% | – | – | – | – | – | – | – |
| Fc1cc(-c2nc3c(c(N4CCOCC4)n2)CCCC3)c(F)cc1Cl | – | 770 nM | 313% | – | – | – | – | – | – | – |
| NC(=O)CCC1CCN(c2nc(-c3cc(F)c(Cl)cc3F)nc3c2CS(=O)(=O)C3)CC1 | 0.3 mg/kg | 18 nM | 627% | – | – | 8 µM (≈ 3.77 µg/mL) | – | – | – | 30% |
| CNC(=O)C1CCN(c2nc(-c3cc(F)c(Cl)cc3F)nc3c2CS(=O)(=O)C3)CC1 | 3 mg/kg | 51 nM | 457% | – | – | 11 µM (≈ 5.03 µg/mL) | – | – | – | – |
| O=S1(=O)Cc2nc(-c3cc(F)c(Cl)cc3F)nc(N3CCC(O)CC3)c2C1 | 1 mg/kg | 14 nM | 575% | – | 32% | 91 µM (≈ 37.8 µg/mL) | – | – | – | – |
| Fc1cc(-c2nc3c(c(N4CCOCC4)n2)CSC3)c(F)cc1Cl | – | 150 nM | 467% | – | – | – | – | – | – | – |
